Test results reported in patent US20220220068A1 (published 2022).
Structures can show the parent of a compound that is named as a salt.

Row | melting point | Structure (SMILES)
1 | 90 to 92 °C | CN/C(=N/c1cc(C)c(C(=O)OCc2ccccc2C)cc1C)OC
2 | 172 to 176 °C | CCN(C)/C=N/c1ccc(C(=O)OCc2cccc(C(F)(F)F)c2)c(C)c1C (as salt: hydrochloride)
